Test: xn = mol fraction of the nth substance listed
Conditions: Fluid (supercritical or subcritical phases), x1 = 0.97; for speed of sound: 304.19 K, Frequency=5 MHz, Pulse-echo method; for mass density: 304.21 K, Vibrating tube method

O=C=O [carbon dioxide] + CO
Conditions	mass density [kg/m3]	speed of sound [m/s]
7850 kPa	713.81	–
7875 kPa	715.24	–
7900 kPa	716.69	–
7925 kPa	717.99	–
7950 kPa	719.19	–
7975 kPa	720.37	–
8000 kPa	721.57	–
8025 kPa	722.66	–
8050 kPa	723.78	–
8075 kPa	724.91	–
8100 kPa	725.92	–
8125 kPa	726.93	–
8150 kPa	728.01	–
8175 kPa	729.1	–
8200 kPa	730.14	–
8225 kPa	731.15	–
8250 kPa	732.12	–
8275 kPa	733.11	–
8300 kPa	734.02	–
8325 kPa	735.01	–
8350 kPa	735.91	–
8375 kPa	736.81	–
8400 kPa	737.68	–
8425 kPa	738.51	–
8450 kPa	739.43	–
8475 kPa	740.29	–
8500 kPa	741.14	–
8525 kPa	741.99	–
8550 kPa	742.83	–
8575 kPa	743.65	–
8600 kPa	744.47	–
8625 kPa	745.32	–
8650 kPa	746.1	–
8675 kPa	746.89	–
8700 kPa	747.67	–
8725 kPa	748.5	–
8750 kPa	749.21	–
8775 kPa	749.97	–
8800 kPa	750.73	–
8825 kPa	751.52	–
8850 kPa	752.22	–
8875 kPa	752.97	–
8900 kPa	753.68	–
8925 kPa	754.39	–
8950 kPa	755.11	–
8975 kPa	755.82	–
9000 kPa	756.48	–
9025 kPa	757.25	–
9050 kPa	757.93	–
9075 kPa	758.64	–
9100 kPa	759.25	–
9125 kPa	759.92	–
9150 kPa	760.55	–
9175 kPa	761.24	–
9200 kPa	761.88	–
9225 kPa	762.52	–
9250 kPa	763.15	–
9275 kPa	763.76	–
9300 kPa	764.36	–
9325 kPa	764.98	–
9350 kPa	765.65	–
9375 kPa	766.27	–
9400 kPa	766.88	–
9425 kPa	767.44	–
9450 kPa	768.06	–
9475 kPa	768.6	–
9500 kPa	769.12	–
9525 kPa	769.73	–
9550 kPa	770.22	–
9575 kPa	770.76	–
9600 kPa	771.35	–
9625 kPa	771.96	–
9650 kPa	772.5	–
9675 kPa	773.03	–
9700 kPa	773.62	–
9725 kPa	774.15	–
9750 kPa	774.65	–
9775 kPa	775.2	–
9800 kPa	775.72	–
9825 kPa	776.25	–
9850 kPa	776.81	–
9875 kPa	777.3	–
9900 kPa	777.81	–
9925 kPa	778.36	–
9950 kPa	778.83	–
9975 kPa	779.32	–
10000 kPa	779.86	–
10025 kPa	780.3	–
10050 kPa	780.81	–
10075 kPa	781.33	–
10100 kPa	781.81	–
10125 kPa	782.29	–
10150 kPa	782.79	–
10175 kPa	783.3	–
10200 kPa	783.77	–
10225 kPa	784.17	–
10250 kPa	784.67	–
10275 kPa	785.18	–
10300 kPa	785.65	–
10325 kPa	786.13	–
10350 kPa	786.55	–
10375 kPa	787.08	–
10400 kPa	787.51	–
10425 kPa	787.92	–
10450 kPa	788.38	–
10475 kPa	788.87	–
10500 kPa	789.3	–
10525 kPa	789.73	–
10550 kPa	790.18	–
10575 kPa	790.6	–
10600 kPa	791.05	–
65100 kPa	–	894.9
70230 kPa	–	919.7
75540 kPa	–	944.1
79980 kPa	–	963.6
90070 kPa	–	1005.1
100040 kPa	–	1043.2
109900 kPa	–	1078.3
119960 kPa	–	1112.5
140090 kPa	–	1173.8
159770 kPa	–	1228.8
180450 kPa	–	1282

From the NIST ThermoML archive (doi:10.1016/j.jct.2016.03.026)
